Patent US9737073B2, “Herbicidal weed control from combinations of fluroxypyr and ALS inhibitors” (Dow AgroSciences LLC, priority 2014, dated 2017)

Experiments:
Assay type in all cases: in vivo
[1] = system: Abutilon theophrasti (velvetleaf, ABUTH); assay: Postemergence herbicidal weed control, fluroxypyr-meptyl and chlorimuron-ethyl, field trials (Table 3)
Experimental: (§1) Seeds of the desired test plant species were planted in a peat-based potting soil, Metro-Mix 360® in plastic pots with a surface area of 128 square centimeters (cm^2). Metro-Mix 360® consists of formulated Canadian sphagnum peat moss, coarse perlite, bark ash, a starter nutrient charge (with gypsum), a slow-release nitrogen and dolomitic limestone. The plants were grown for 7-19 days in a greenhouse with an approximate 14-hour (h) photoperiod which was maintained at about 29° C. during the day and 26° C. during the night. Nutrients and water were added on a regular basis and supplemental lighting was provided with overhead metal halide 1000-Watt lamps as necessary. The plants were treated with postemergence foliar applications when they reached the third to fourth true leaf stage. All treatments were applied using a randomized complete block trial design, with 4 replications per treatment.
(§2) Treatments consisted of the compounds as listed in Tables 1 to 4, each compound applied alone and in combination. Commercially formulated products of fluroxypyr-meptyl (STARANE™, 333 grams acid equivalent per liter (g ae/L) EC), diclosulam (SPIDER® 84WG), cloransulam-methyl (FIRSTRATE™ 84WG), chlorimuron-ethyl (CLASSIC® 25WG) and thifensulfuron-methyl (HARMONY® 50SG). Formulated amounts of fluroxypyr-meptyl, diclosulam, cloransulam-methyl, chlorimuron-ethyl and thifensulfuron-methyl were placed in 60 milliliter (mL) glass vials and dissolved in a volume of 30 or 60 mL of a water solution containing Agri-dex crop oil concentrate in a 1% volume per volume (v/v) ratio. Compound requirements are based upon either a 30- or a 60-mL application volume at a rate of 200 liters per hectare (L/ha). Spray solutions of the mixtures were prepared by adding the stock solutions to the appropriate amount of dilution solution to form either a 30- or a 60-mL spray solution with active ingredients in single and two-way combinations. Formulated compounds were applied to the plant material with an overhead Generation III Research Sprayer manufactured by DeVries Manufacturing in Hollandale, Minn., USA. The track sprayer was equipped with an 8003E nozzle calibrated to deliver 200 L/ha at a spray height of 18 inches (43 centimeters (cm)) above average plant canopy.
(§3) The treated plants and untreated control plants were placed in a greenhouse as described above and watered by sub-irrigation to prevent wash-off of the test compounds.
(§4) Treatments were rated at 7 to 21 days after application (DAA) as compared to the untreated control plants. Visual weed control was scored on a scale of 0 to 100 percent where 0 corresponds to no injury and 100 corresponds to complete kill.
(§5) Field trials were conducted using standard herbicide small plot research methodology. Plots varied from 3×3.3 meter (m) to 4.5×10 m (width×length) with 4 replicates per treatment. The crops used in the field trials were grown using normal cultural practices for land preparation, fertilization, seeding and maintenance to ensure good growth of the crop and the weeds.
(§6) All treatments in the field trials were applied using either pressurized air or carbon dioxide (CO2) backpack or bicycle sprayers calibrated to apply 100-187 L/ha spray volume. Flat Fan spray nozzles were used in all trials, with water as the diluent applied at 275-300 kilopascals (kPa). Weed sizes at application ranged from 10 to 40 cm tall. Commercially available products of fluroxypyr-meptyl (STARANE™, 180 and 333 g ae/L EC), diclosulam (SPIDER® 84WG), and thifensulfuron-methyl (HARMONY® 75WG) were mixed in water at appropriately formulated product rates to achieve the desired rates based on a unit area of application (hectare) to achieve the desired rates as shown. No adjuvants were tank-mixed with any treatments applied in the field trials. Treatments were rated at 14-26 days after application as compared to the untreated control plants. […]

[2] = system: Amaranthus rudis Sauer (common waterhemp, AMATA); assay: as above
Experimental: as §1, §2, §3, §4, §5, §6

[3] = system: Chenopodium album (common lambsquarters, CHEAL); assay: Postemergence herbicidal weed control, fluroxypyr-meptyl and cloransulam-methyl, field trials (Table 2)
Experimental: as §1, §2, §3, §4, §5
as §6, with “[…] Visual weed control was scored on a scale of 0” for “Treatments were rated at 14-26 days after application as compared”, “100 percent where 0 corresponds to no injury and 100 corresponds to complete kill.” for “the untreated control plants.”

[4] = system: Abutilon theophrasti (velvetleaf, ABUTH); assay: as above
Experimental: as §1, §2, §3, §4, §5, §6

[5] = system: Amaranthus rudis Sauer (common waterhemp, AMATA); assay: as above
Experimental: as §1, §2, §3, §4, §5, §6

[6] = system: Commelina benghalensis (tropical spiderwort, COMBE); assay: Postemergence herbicidal weed control, fluroxypyr-meptyl and diclosulam, greenhouse trials (Table 1)
Experimental: as §5
(§7) All treatments in the field trials were applied using either pressurized air or carbon dioxide (CO2) backpack or bicycle sprayers calibrated to apply 100-187 L/ha spray volume. Flat Fan spray nozzles were used in all trials, with water as the diluent applied at 275-300 kilopascals (kPa). Weed sizes at application ranged from 10 to 40 cm tall. Commercially available products of fluroxypyr-meptyl (STARANE™, 180 and 333 g ae/L EC), diclosulam (SPIDER® 84WG), and thifensulfuron-methyl (HARMONY® 75WG) were mixed in water at appropriately formulated product rates to achieve the desired rates based on a unit area of application (hectare) to achieve the desired rates as shown. No adjuvants were tank-mixed with any treatments applied in the field trials. Treatments were rated at 14-26 days after application as compared to the untreated control plants. Visual weed control was scored on a scale of 0 to 100 percent where 0 corresponds to no injury and 100 corresponds to complete kill.
(§8) The treated plots and control plots were rated blind at various intervals after application. Ratings were reported on a Percent (%) Visual Control basis, where 0 corresponds to no visual effect/weed control and 100 corresponds to complete kill of the target weeds.
(§9) Colby's equation was used to determine the herbicidal effects expected from the mixtures (Colby, S. R. Calculation of the synergistic and antagonistic response of herbicide combinations. Weeds 196715, 20-22). A t-test (alpha=0.05) between Colby predictions and observed combinations was used to test for significant differences indicating synergy or antagonism. The results presented in the Tables were significant according to the described criteria.
(§10) The following equation was used to calculate the expected activity of mixtures containing two active ingredients, A and B: Expected=A+B−(A×B/100) • A=observed efficacy of active ingredient A at the same concentration as used in the mixture; • B=observed efficacy of active ingredient B at the same concentration as used in the mixture.

[7] = system: Abutilon theophrasti (velvetleaf, ABUTH); assay: as above
Experimental: as §1, §2, §3, §4, §9, §10

[8] = system: Chenopodium album (common lambsquarters, CHEAL); assay: as above
Experimental: as §1, §2, §3, §4, §9, §10

[9] = system: Amaranthus rudis Sauer (common waterhemp, AMATA); assay: as above
Experimental: as §1, §2, §3, §4, §9, §10

[10] = system: Sida cordifolia L. (heartleaf sida, SIDCO); assay: as above; conditions: 14DAA1, 25.2 g ai/ha
Experimental: as §1
Treatments consisted of the compounds as listed in Tables 1 to 4, each compound applied alone and in combination. […]
Treatments were rated at 7 to 21 days after application (DAA) as compared to the untreated control plants. Visual weed control was scored on a scale of 0 to 100 percent where 0 corresponds to no injury and 100 corresponds to complete kill. […]

[11] = system: Polygonum convolvulus L. (wild buckwheat, POLCO); assay: Postemergence herbicidal weed control, fluroxypyr-meptyl and thifensulfuron-methyl, field trials (Table 4); conditions: 21DAA1, 13.0 g ai/ha
Experimental: as §5, §7, §8, §9, §10

[12] = system: Amaranthus retroflexus L. (redroot pigweed, AMARE); assay: as above; conditions: 21DAA1, 13.0 g ai/ha
Experimental: as §5, §7, §8, §9, §10

[13] = system: Chenopodium album (common lambsquarters, CHEAL); assay: as above; conditions: 21DAA1, 13.0 g ai/ha
Experimental: as §5, §7, §8, §9, §10

[14] = system: Abutilon theophrasti (velvetleaf, ABUTH); assay: as above
Experimental: as §1, §2, §3, §4, §5
(§11) All treatments in the field trials were applied using either pressurized air or carbon dioxide (CO2) backpack or bicycle sprayers calibrated to apply 100-187 L/ha spray volume. Flat Fan spray nozzles were used in all trials, with water as the diluent applied at 275-300 kilopascals (kPa). Weed sizes at application ranged from 10 to 40 cm tall. […]

[15] = system: Amaranthus palmeri S. Wats. (Palmer amaranth, AMAPA); assay: as above; conditions: 7DAA1, 2.2 g ai/ha
Experimental: as §1, §2, §3, §4, §5, §11

CCOC(=O)c1ccccc1S(=O)(=O)NC(=O)Nc1nc(Cl)cc(OC)n1 [Chlorimuron-ethyl, ethyl 2-[[[[(4-chloro-6-methoxy-2-pyrimidinyl)amino]carbonyl]amino]-sulfonyl]benzoate]
Chlorimuron-ethyl Mean % weed control ([1]; 14DAA1, 1.1 g ai/ha): 56.3%
Chlorimuron-ethyl Mean % weed control ([1]; 14DAA1, 2.2 g ai/ha): 62.5%
Chlorimuron-ethyl Mean % weed control ([2]; 7DAA1, 8.8 g ai/ha): 41.3%
Chlorimuron-ethyl Mean % weed control ([2]; 14DAA1, 8.8 g ai/ha): 28.8%

CCOc1nc(F)cc2nc(S(=O)(=O)Nc3c(Cl)cccc3C(=O)OC)nn12 [Cloransulam-methyl, methyl 3-chloro-2-[[(5-ethoxy-7-fluoro[1,2,4]triazolo[1,5-c]pyrimidin-2-yl)sulfonyl]amino]benzoate]
Cloransulam-methyl Mean % weed control ([3]; 8DAA1, 4.4 g ai/ha): 35.0%
Cloransulam-methyl Mean % weed control ([3]; 14DAA1, 1.1 g ai/ha): 16.7%
Cloransulam-methyl Mean % weed control ([3]; 14DAA1, 4.4 g ai/ha): 11.7%
Cloransulam-methyl Mean % weed control ([3]; 21DAA1, 1.1 g ai/ha): 8.3%
Cloransulam-methyl Mean % weed control ([3]; 21DAA1, 4.4 g ai/ha): 11.0%
Cloransulam-methyl Mean % weed control ([3]; 21DAA1, 8.8 g ai/ha): 10.0%
Cloransulam-methyl Mean % weed control ([4]; 14DAA1, 1.1 g ai/ha): 38.3%
Cloransulam-methyl Mean % weed control ([4]; 14DAA1, 4.4 g ai/ha): 70.0%
Cloransulam-methyl Mean % weed control ([4]; 21DAA1, 1.1 g ai/ha): 40.0%
Cloransulam-methyl Mean % weed control ([4]; 21DAA1, 4.4 g ai/ha): 70.0%
Cloransulam-methyl Mean % weed control ([5]; 8DAA1, 4.4 g ai/ha): 58.8%
Cloransulam-methyl Mean % weed control ([5]; 14DAA1, 4.4 g ai/ha): 38.8%
Cloransulam-methyl Mean % weed control ([5]; 21DAA1, 4.4 g ai/ha): 37.5%

CCOc1nc(F)cc2nc(S(=O)(=O)Nc3c(Cl)cccc3Cl)nn12 [Diclosulam, N-(2,6-dichlorophenyl)-5-ethoxy-7-fluoro[1,2,4]triazolo[1,5-c]pyrimidine-2-sulfonamide]
Diclosulam Mean % weed control ([6]; 14DAA1, 25.2 g ai/ha): 41.3%
Diclosulam Mean % weed control ([6]; 26DAA1, 25.2 g ai/ha): 17.5%
Diclosulam Mean % weed control ([7]; 14DAA1, 1.1 g ai/ha): 28.8%
Diclosulam Mean % weed control ([7]; 21DAA1, 1.1 g ai/ha): 30.0%
Diclosulam Mean % weed control ([8]; 8DAA1, 8.8 g ai/ha): 38.3%
Diclosulam Mean % weed control ([8]; 14DAA1, 2.2 g ai/ha): 3.3%
Diclosulam Mean % weed control ([8]; 14DAA1, 8.8 g ai/ha): 21.7%
Diclosulam Mean % weed control ([8]; 21DAA1, 2.2 g ai/ha): 5.0%
Diclosulam Mean % weed control ([8]; 21DAA1, 4.4 g ai/ha): 16.7%
Diclosulam Mean % weed control ([8]; 21DAA1, 8.8 g ai/ha): 31.7%
Diclosulam Mean % weed control ([9]; 8DAA1, 8.8 g ai/ha): 51.3%
Diclosulam Mean % weed control ([9]; 14DAA1, 4.4 g ai/ha): 28.8%
Diclosulam Mean % weed control ([9]; 14DAA1, 8.8 g ai/ha): 27.5%
Diclosulam Mean % weed control ([9]; 21DAA1, 4.4 g ai/ha): 25.0%
Diclosulam Mean % weed control ([9]; 21DAA1, 8.8 g ai/ha): 28.8%
Diclosulam Mean % weed control [10]: 23.3%

COC(=O)c1sccc1S(=O)(=O)NC(=O)Nc1nc(C)nc(OC)n1 [Thifensulfuron-methyl, methyl 3-[[[[(4-methoxy-6-methyl-1,3,5-triazin-2-yl)amino]carbonyl]amino]sulfonyl]-2-thiophenecarboxylate]
Thifensulfuron-methyl Mean % weed control [11]: 90.0%
Thifensulfuron-methyl Mean % weed control [12]: 90.0%
Thifensulfuron-methyl Mean % weed control [13]: 90.0%
Thifensulfuron-methyl Mean % weed control ([14]; 14DAA1, 0.6 g ai/ha): 56.3%
Thifensulfuron-methyl Mean % weed control ([14]; 14DAA1, 1.1 g ai/ha): 73.8%
Thifensulfuron-methyl Mean % weed control [15]: 22.5%
